According to patent publication EP0603240B1, “SAFENING HERBICIDAL PYRAZOLYLSULFONYLUREAS” (priority 1991, dated 1993):

Assays:
Assay type in all cases: in vivo
[1] = system: barnyardgrass (Echinochloa crusgalli); experiment: Example 6, Procedure II: Herbicide No. 1 + alachlor (No. 7) with antidotes
Method: (§1) Containers were filled and compacted with a fumigated silt loam top soil to a depth of about 1.3 cm from the top of the container. A first container was designated as an untreated control, a second container was designated as a herbicide control, and a third container was designated as a herbicide + antidote test container. Each of the containers was seeded with a crop species. A measured amount of herbicide dispersed or dissolved in acetone was applied to a measured quantity of soil. To this same quantity of soil treated with herbicide, there was added a measured amount of antidote dispersed or dissolved in acetone. The quantity of soil treated with the herbicide and antidote was thoroughly mixed to incorporate the herbicide and antidote in the soil uniformly. The seed bed in the third container of soil was covered with the soil treated with the herbicide and antidote and the container was leveled. For each test series, the seed beds of the first and second containers were likewise covered by soil layers. the cover layer of the first container was not treated with herbicide or antidote.
(§2) The containers were then placed on a bench in a greenhouse and sub-irrigated as required for the duration of the test. […] Plant response is measured in terms of percent injury. Antidote efficacy is indicated as the difference in plant injury by the herbicide(s) without the antidote and with the antidote.
(§3) This procedure is the same as Procedure I, but modified in the manner that after incorporation of the chemicals (herbicide and antidote) the containers with the covered seedbed were treated with an initial overhead irrigation equivalent to 0.6 cm rainfall, then subsequently sub-irrigated as required on greenhouse benches.
(§4) In the series of greenhouse tests described below, for routine screening purposes the herbicide/antidote compositions were tested in crop/weed combinations involving corn as the crop and either or both of the weeds barnyardgrass (Echinochloa crusgalli), a monocotyledonous weed, and velvetleaf (Abutilon theophrasti), a dicotyledonous weed. In the tables below, these weeds are indicated by the symbols "BYG" and "VL", respectively.
(§5) This example was designed to investigate the antidotal efficacy of a plurality of antidotal compounds against a composition comprising Herbicide No. 1 in combination with Herbicide No. 7 (alachlor). The antidotal compounds used herein were Nos. 1, 2, 7, 13 and 15.
(§6) In this example, Procedure II described above was followed. The data from the tests in this example is shown in Table 6 and represents averages of duplicate replications.

[2] = system: velvetleaf (Abutilon theophrasti); experiment: as above
Method: as §1, §2, §3, §4, §5, §6

corn [3] = experiment: Example 7, Procedure II: Herbicide No. 1 + metolachlor (No. 12) with antidotes
Method: as §1, §2, §3, §6
The tests in this example followed the same procedure and antidotes used in Example 6. However, Herbicide No. 12 (metolachlor) was used as the co-herbicide with Herbicide No. 1.

corn [4] = experiment: Example 9, Procedure II: Herbicide No. 1 + pretilachlor (No. 13) with antidotes
Method: as §1, §2, §3
In this example the safening effect on a composition comprising Herbicide No. 1 and another leading rice herbicide, i.e., Herbicide No. 13, was investigated using the same antidotes and test procedure described in the preceding example. Herbicide No. 13 is pretilachlor, active ingredient used in the commercial rice herbicides RIFIT®, SOFIT® and SOFIT® SUPER.

[5] = system: velvetleaf (Abutilon theophrasti); experiment: Example 11, Procedure II: Herbicide No. 1 + metazachlor (No. 14) with antidotes
corn [6] = experiment: Example 18, Procedure II: Herbicide No. 1 + ERADICANE (EPTC + R-25788) with auxiliary antidotes
Method: as §1, §2, §3
(§7) In the test reported in this example, the herbicidal composition was similar to that used in Example 16 in that Herbicide No. 1 was combined with EPTC (Herbicide No. 4) as a co-herbicide and the antidotes included Nos. 1, 2, 7, 13 and 15. However, in this test the EPTC was introduced as a formulation of ERADICANE (EPTC + the antidote R-25788, i.e., Antidote No. 1) at an application rate of 8.96 kg/ha. Thus, in this test two antidotes were present, viz. R-25788 and one of the auxilliary antidotes, No. 2, 13 and 15.
Test procedures were those of Procedure II above.

[7] = system: barnyardgrass (Echinochloa crusgalli); experiment: Example 19, Procedure II: Herbicide No. 1 + ERADICANE EXTRA with added antidotes
Method: as §1, §2, §3, §4, §7
(§8) The test reported in this example was performed in the same manner and with the same antidotes used in Example 18, the only difference being the substitution of the commercial herbicidal product ERADICANE® EXTRA for ERADICANE®. ERADICANE EXTRA is a formulation containing both an antidote, i.e., R-29148 (Antidote No. 5 herein), and an extender, dietholate.

[8] = system: velvetleaf (Abutilon theophrasti); experiment: as above
Method: as §1, §2, §3, §4, §7, §8

[9] = Herbicide No.1 0.14 + No.7 4.48 kg/ha + antidote 2.24 kg/ha
[10] = Herbicide No.1 0.14 + No.7 4.48 kg/ha + antidote 8.96 kg/ha
[11] = Herbicide No.1 0.56 + No.7 4.48 kg/ha + antidote 2.24 kg/ha
[12] = Herbicide No.1 0.56 + No.7 4.48 kg/ha + antidote 8.96 kg/ha
[13] = Herbicide No.1 0.14 + No.12 3.36 kg/ha + antidote 2.24 kg/ha
[14] = Herbicide No.1 0.14 + No.12 3.36 kg/ha + antidote 8.96 kg/ha
[15] = Herbicide No.1 0.56 + No.12 3.36 kg/ha + antidote 2.24 kg/ha
[16] = Herbicide No.1 0.56 + No.12 3.36 kg/ha + antidote 8.96 kg/ha
[17] = Herbicide No.1 0.14 kg/ha + Herbicide No.13 2.24 kg/ha, antidote rate 2.24 kg/ha
[18] = Herbicide No.1 0.14 kg/ha + Herbicide No.13 2.24 kg/ha, antidote rate 8.96 kg/ha
[19] = Herbicide No.1 0.56 kg/ha + Herbicide No.13 2.24 kg/ha, antidote rate 2.24 kg/ha
[20] = Herbicide No.1 0.56 kg/ha + Herbicide No.13 2.24 kg/ha, antidote rate 8.96 kg/ha
[21] = Herbicide No.1 0.56 kg/ha + Herbicide No.14 3.36 kg/ha, antidote rate 2.24 kg/ha
[22] = Herbicide No.1 0.56 kg/ha + Herbicide No.14 3.36 kg/ha, antidote rate 8.96 kg/ha
[23] = Herbicide No.1 1.12 kg/ha + Herbicide No.14 3.36 kg/ha, antidote rate 2.24 kg/ha
[24] = Herbicide No.1 1.12 kg/ha + Herbicide No.14 3.36 kg/ha, antidote rate 8.96 kg/ha
[25] = Herbicide No.1 0.56 kg/ha + ERADICANE 8.96 kg/ha, antidote 2.24 kg/ha
[26] = Herbicide No.1 0.56 kg/ha + ERADICANE 8.96 kg/ha, antidote 8.96 kg/ha
[27] = Herbicide No.1 1.12 kg/ha + ERADICANE 8.96 kg/ha, antidote 2.24 kg/ha
[28] = Herbicide No.1 1.12 kg/ha + ERADICANE 8.96 kg/ha, antidote 8.96 kg/ha
[29] = Herbicide No.1 0.56 kg/ha + ERADICANE EXTRA 8.96 kg/ha, antidote 2.24 kg/ha
[30] = Herbicide No.1 0.56 kg/ha + ERADICANE EXTRA 8.96 kg/ha, antidote 8.96 kg/ha
[31] = Herbicide No.1 1.12 kg/ha + ERADICANE EXTRA 8.96 kg/ha, antidote 2.24 kg/ha
[32] = Herbicide No.1 1.12 kg/ha + ERADICANE EXTRA 8.96 kg/ha, antidote 8.96 kg/ha

## C=CCN(CC=C)C(=O)C(Cl)Cl [compound 1]
[1]; [9]
  % Injury BYG: 100%
[1]; [10]
  % Injury BYG: 100%
[1]; [11]
  % Injury BYG: 100%
[1]; [12]
  % Injury BYG: 100%
[2]; [9]
  % Injury VL: 75%
[2]; [10]
  % Injury VL: 80%
[2]; [11]
  % Injury VL: 80%
[2]; [12]
  % Injury VL: 85%
Corn [3]; [13]
  % Injury Corn: 0%
Corn [3]; [14]
  % Injury Corn: 0%
Corn [3]; [15]
  % Injury Corn: 0%
Corn [3]; [16]
  % Injury Corn: 10%
Corn [4]; [17]
  % Injury Corn: 0%
Corn [4]; [18]
  % Injury Corn: 0%
Corn [4]; [19]
  % Injury Corn: 5%
Corn [4]; [20]
  % Injury Corn: 10%
[5]; [21]
  % Injury VL: 80%
[5]; [22]
  % Injury VL: 90%
[5]; [23]
  % Injury VL: 85%
[5]; [24]
  % Injury VL: 80%
Corn [6]; [25]
  % Injury Corn: 30%
Corn [6]; [26]
  % Injury Corn: 25%
Corn [6]; [27]
  % Injury Corn: 35%
Corn [6]; [28]
  % Injury Corn: 25%
[7]; [29]
  % Injury BYG: 90%
[7]; [30]
  % Injury BYG: 90%
[7]; [31]
  % Injury BYG: 90%
[7]; [32]
  % Injury BYG: 95%
[8]; [29]
  % Injury VL: 70%
[8]; [30]
  % Injury VL: 75%
[8]; [31]
  % Injury VL: 70%
[8]; [32]
  % Injury VL: 85%

## O=C1OC(=O)c2cccc3cccc1c23 [compound 2]
[1]; [9]
  % Injury BYG: 100%
[1]; [10]
  % Injury BYG: 100%
[1]; [11]
  % Injury BYG: 100%
[1]; [12]
  % Injury BYG: 100%
[2]; [9]
  % Injury VL: 70%
[2]; [10]
  % Injury VL: 75%
[2]; [11]
  % Injury VL: 90%
[2]; [12]
  % Injury VL: 90%
Corn [3]; [13]
  % Injury Corn: 0%
Corn [3]; [14]
  % Injury Corn: 0%
Corn [3]; [15]
  % Injury Corn: 10%
Corn [3]; [16]
  % Injury Corn: 15%
[5]; [21]
  % Injury VL: 85%
[5]; [22]
  % Injury VL: 90%
[5]; [23]
  % Injury VL: 97%
[5]; [24]
  % Injury VL: 85%
Corn [6]; [25]
  % Injury Corn: 15%
Corn [6]; [26]
  % Injury Corn: 25%
Corn [6]; [27]
  % Injury Corn: 20%
Corn [6]; [28]
  % Injury Corn: 20%
[7]; [29]
  % Injury BYG: 90%
[7]; [30]
  % Injury BYG: 90%
[7]; [31]
  % Injury BYG: 85%
[7]; [32]
  % Injury BYG: 85%
[8]; [29]
  % Injury VL: 75%
[8]; [30]
  % Injury VL: 75%
[8]; [31]
  % Injury VL: 85%
[8]; [32]
  % Injury VL: 75%

## O=C(C(Cl)Cl)N1CCOC12CCCCC2 [compound 7]
[1]; [9]
  % Injury BYG: 100%
[1]; [10]
  % Injury BYG: 100%
[1]; [11]
  % Injury BYG: 100%
[1]; [12]
  % Injury BYG: 100%
[2]; [9]
  % Injury VL: 75%
[2]; [10]
  % Injury VL: 75%
[2]; [11]
  % Injury VL: 90%
[2]; [12]
  % Injury VL: 90%
Corn [3]; [13]
  % Injury Corn: 10%
Corn [3]; [14]
  % Injury Corn: 10%
Corn [3]; [16]
  % Injury Corn: 15%
Corn [4]; [17]
  % Injury Corn: 10%
Corn [4]; [18]
  % Injury Corn: 0%
Corn [4]; [19]
  % Injury Corn: 30%
Corn [4]; [20]
  % Injury Corn: 25%
[5]; [21]
  % Injury VL: 80%
[5]; [22]
  % Injury VL: 85%
[5]; [23]
  % Injury VL: 90%
[5]; [24]
  % Injury VL: 90%
Corn [6]; [25]
  % Injury Corn: 15%
Corn [6]; [26]
  % Injury Corn: 20%
Corn [6]; [27]
  % Injury Corn: 15%
Corn [6]; [28]
  % Injury Corn: 10%
[7]; [29]
  % Injury BYG: 85%
[7]; [30]
  % Injury BYG: 85%
[7]; [31]
  % Injury BYG: 90%
[7]; [32]
  % Injury BYG: 85%
[8]; [29]
  % Injury VL: 75%
[8]; [30]
  % Injury VL: 80%
[8]; [31]
  % Injury VL: 75%
[8]; [32]
  % Injury VL: 85%
